Laboratory results reported in ChEMBL document CHEMBL1201861, “Genomics of Drug Sensitity in Cancer screening data, Wellcome Trust Sanger Institute”.

How the values were obtained:
Assay in all cases: cells
GB-1 = format: functional, cell-based, Homo sapiens; settings: Homo sapiens, GB-1;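 further: growth of GB-1 cells judged by a viability assay, IC50 marks the concentration inhibiting growth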
Description: SANGER: Inhibition of human GB-1 cell growth in a cell viability assay.

HCE-T = format: functional, cell-based, Homo sapiens; settings: Homo sapiens, HCE-T;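 further: cell viability assay read-out, reporting inhibition of HCE-T cell growth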
Description: SANGER: Inhibition of human HCE-T cell growth in a cell viability assay.

HT = format: functional, cell-based, Homo sapiens; settings: Homo sapiens, HT
Description: SANGER: Inhibition of human HT cell growth in a cell viability assay.

KU812 cell line = format: functional, cell-based, Homo sapiens; settings: Homo sapiens, KU812;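 further: growth inhibition of KU812 cells, read out with a cell viability assay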
Description: SANGER: Inhibition of human KU812 cell growth in a cell viability assay.

BE-13 = format: functional, cell-based, Homo sapiens; settings: Homo sapiens, BE-13;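 further: growth inhibition of human BE-13 cells, measured with a cell viability assay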
Description: SANGER: Inhibition of human BE-13 cell growth in a cell viability assay.

JVM-3 = format: functional, cell-based, Homo sapiens; settings: Homo sapiens, JVM-3;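 further: growth inhibition of human JVM-3 cells, read out with a cell viability assay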
Description: SANGER: Inhibition of human JVM-3 cell growth in a cell viability assay.

NCI-H1155 = format: functional, cell-based, Homo sapiens; settings: Homo sapiens, NCI-H1155;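 further: cell growth inhibition measured by a viability assay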
Description: SANGER: Inhibition of human NCI-H1155 cell growth in a cell viability assay.

SK-MEL-1 = format: functional, cell-based, Homo sapiens; settings: Homo sapiens, SK-MEL-1;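 further: growth inhibition of human SK-MEL-1 cells, read out by a cell viability assay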
Description: SANGER: Inhibition of human SK-MEL-1 cell growth in a cell viability assay.

LS-123 = format: functional, cell-based, Homo sapiens; settings: Homo sapiens, LS-123
Description: SANGER: Inhibition of human LS-123 cell growth in a cell viability assay.

COLO-684 = format: functional, cell-based, Homo sapiens; settings: Homo sapiens, COLO-684
Description: SANGER: Inhibition of human COLO-684 cell growth in a cell viability assay.

TK-10 = format: functional, cell-based, Homo sapiens; settings: Homo sapiens, TK-10;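 further: growth inhibition of TK-10 cells, read out in a cell viability assay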
Description: SANGER: Inhibition of human TK10 cell growth in a cell viability assay.

TE-12 = format: functional, cell-based, Homo sapiens; settings: Homo sapiens, TE-12;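 further: growth inhibition of TE-12 cells, read out by a cell viability assay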
Description: SANGER: Inhibition of human TE-12 cell growth in a cell viability assay.

NCI-H1648 = format: functional, cell-based, Homo sapiens; settings: Homo sapiens, NCI-H1648;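 further: cell viability assay measuring inhibition of NCI-H1648 cell growth, from the Sanger screening data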
Description: SANGER: Inhibition of human NCI-H1648 cell growth in a cell viability assay.

SBC-1 = format: functional, cell-based, Homo sapiens; settings: Homo sapiens, SBC-1;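 further: cell viability assay measuring growth inhibition of the SBC-1 cell line, IC50 being the concentration that halves growth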
Description: SANGER: Inhibition of human SBC-1 cell growth in a cell viability assay.

ES1 = format: functional, cell-based, Homo sapiens; settings: Homo sapiens, ES1;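 further: growth inhibition of ES1 cells, read out with a cell viability assay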
Description: SANGER: Inhibition of human ES1 cell growth in a cell viability assay.

KALS-1 = format: functional, cell-based, Homo sapiens; settings: Homo sapiens, KALS-1; read-out: IC50;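 further: growth inhibition of KALS-1 cells, determined with a cell viability assay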
Description: SANGER: Inhibition of human KALS-1 cell growth in a cell viability assay.

SH-4 = format: functional, cell-based; settings: Homo sapiens;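 further: growth inhibition of SH-4 cells, read out with a cell viability assay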
Description: SANGER: Inhibition of human SH-4 cell growth in a cell viability assay.

C2BBe1 = format: functional, cell-based, Homo sapiens; settings: Homo sapiens, C2BBe1;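 further: growth inhibition of C2BBe1 cells, read out through a viability assay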
Description: SANGER: Inhibition of human C2BBe1 cell growth in a cell viability assay.

SF-268 = format: functional, cell-based, Homo sapiens; settings: Homo sapiens, SF-268;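 further: growth inhibition of SF-268 cells determined with a cell viability assay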
Description: SANGER: Inhibition of human SF268 cell growth in a cell viability assay.

EW-3 = format: functional, cell-based, Homo sapiens; settings: Homo sapiens, EW-3;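 further: cell viability assay read-out, IC50 reflects inhibition of growth of the EW-3 cells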
Description: SANGER: Inhibition of human EW-3 cell growth in a cell viability assay.

EOL1 = format: functional, cell-based, Homo sapiens; settings: Homo sapiens, EOL1;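 further: growth inhibition of EoL-1 cells, read out by a cell viability assay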
Description: SANGER: Inhibition of human EoL-1-cell cell growth in a cell viability assay.

EW-13 = format: functional, cell-based, Homo sapiens; settings: Homo sapiens, EW-13; read-out: IC50;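 further: growth inhibition of EW-13 cells, read out with a cell viability assay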
Description: SANGER: Inhibition of human EW-13 cell growth in a cell viability assay.

ATN-1 = format: functional, cell-based, Homo sapiens; settings: Homo sapiens, ATN-1;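 further: growth inhibition of human ATN-1 cells, read out with a cell viability assay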
Description: SANGER: Inhibition of human ATN-1 cell growth in a cell viability assay.

ES8 = format: functional, cell-based, Homo sapiens; settings: Homo sapiens, ES8;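 further: growth inhibition of human ES8 cells, read out with a cell viability assay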
Description: SANGER: Inhibition of human ES8 cell growth in a cell viability assay.

LS-513 = format: functional, cell-based, Homo sapiens; settings: Homo sapiens, LS-513
Description: SANGER: Inhibition of human LS-513 cell growth in a cell viability assay.

HDLM-2 = format: functional, cell-based, Homo sapiens; settings: Homo sapiens, HDLM-2;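 further: cell viability assay measuring suppression of HDLM-2 proliferation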
Description: SANGER: Inhibition of human HDLM-2 cell growth in a cell viability assay.

Ramos-2G6-4C10 = format: functional, cell-based, Homo sapiens; settings: Homo sapiens, Ramos-2G6-4C10;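 further: growth inhibition of the cell line, measured by a cell viability read-out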
Description: SANGER: Inhibition of human Ramos-2G6-4C10 cell growth in a cell viability assay.

BB30-HNC = format: functional, cell-based, Homo sapiens; settings: Homo sapiens, BB30-HNC;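 further: growth inhibition of the cultured cell line, read out by a cell viability assay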
Description: SANGER: Inhibition of human BB30-HNC cell growth in a cell viability assay.

ML-2 = format: functional, cell-based, Homo sapiens; settings: Homo sapiens, ML-2;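 further: growth inhibition of ML-2 cells, measured with a cell viability readout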
Description: SANGER: Inhibition of human ML-2 cell growth in a cell viability assay.

MC116 = format: functional, cell-based, Homo sapiens; settings: Homo sapiens, MC116;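 further: growth inhibition of MC116 cells, read out with a cell viability assay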
Description: SANGER: Inhibition of human MC116 cell growth in a cell viability assay.

COLO-824 = format: functional, cell-based, Homo sapiens; settings: Homo sapiens, COLO-824
Description: SANGER: Inhibition of human COLO-824 cell growth in a cell viability assay.

MZ1-PC = format: functional, cell-based, Homo sapiens; settings: Homo sapiens, MZ1-PC;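 further: cell viability assay measuring growth inhibition of human MZ1-PC cells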
Description: SANGER: Inhibition of human MZ1-PC cell growth in a cell viability assay.

A498 = format: functional, cell-based, Homo sapiens; settings: Homo sapiens, A498;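 further: growth inhibition of human A498 cells, read out with a cell viability assay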
Description: SANGER: Inhibition of human A498 cell growth in a cell viability assay.

CAS-1 = format: functional, cell-based, Homo sapiens; settings: Homo sapiens, CAS-1;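 further: growth inhibition of CAS-1 cells, measured with a cell viability assay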
Description: SANGER: Inhibition of human CAS-1 cell growth in a cell viability assay.

A388 = format: functional, cell-based; settings: Homo sapiens;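 further: growth inhibition of human A388 cells, read out with a cell viability assay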
Description: SANGER: Inhibition of human A388 cell growth in a cell viability assay.

SW 954 = format: functional, cell-based, Homo sapiens; settings: Homo sapiens, SW 954;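 further: growth inhibition of SW954 human cancer cells, read out as cell viability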
Description: SANGER: Inhibition of human SW954 cell growth in a cell viability assay.

D283 Med = format: functional, cell-based, Homo sapiens; settings: Homo sapiens, D283 Med
Description: SANGER: Inhibition of human D-283MED cell growth in a cell viability assay.

MMAC-SF = format: functional, cell-based; settings: Homo sapiens;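 further: growth inhibition of human MMAC-SF cells, read out with a cell viability assay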
Description: SANGER: Inhibition of human MMAC-SF cell growth in a cell viability assay.

NCI-H82 = format: functional, cell-based, Homo sapiens; settings: Homo sapiens, NCI-H82;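 further: growth inhibition of NCI-H82 cells, measured with a cell viability readout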
Description: SANGER: Inhibition of human NCI-H82 cell growth in a cell viability assay.

SW684 = format: functional, cell-based, Homo sapiens; settings: Homo sapiens, SW684; read-out: IC50;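 further: growth inhibition of human SW684 cells, measured by a cell viability assay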
Description: SANGER: Inhibition of human SW684 cell growth in a cell viability assay.

A101D = format: functional, cell-based, Homo sapiens; settings: Homo sapiens, A101D;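 further: growth inhibition of the cell line, measured with a viability assay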
Description: SANGER: Inhibition of human A101D cell growth in a cell viability assay.

NCI-H1395 = format: functional, cell-based, Homo sapiens; settings: Homo sapiens, NCI-H1395;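 further: cell viability assay read-out quantifying reduced proliferation of human NCI-H1395 cells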
Description: SANGER: Inhibition of human NCI-H1395 cell growth in a cell viability assay.

ACN = format: functional, cell-based, Homo sapiens; settings: Homo sapiens, ACN;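 further: growth inhibition of the human ACN cell line, read out via cell viability testing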
Description: SANGER: Inhibition of human ACN cell growth in a cell viability assay.

RKO = format: functional, cell-based, Homo sapiens; settings: Homo sapiens, RKO;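 further: growth inhibition of human RKO cells, read out with a cell viability assay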
Description: SANGER: Inhibition of human RKO cell growth in a cell viability assay.

DU-4475 = format: functional, cell-based, Homo sapiens; settings: Homo sapiens, DU-4475
Description: SANGER: Inhibition of human DU-4475 cell growth in a cell viability assay.

SF-126 = format: functional, cell-based, Homo sapiens; settings: Homo sapiens, SF-126;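 further: growth inhibition of human SF126 cells, read out with a cell viability assay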
Description: SANGER: Inhibition of human SF126 cell growth in a cell viability assay.

ETK-1 = format: functional, cell-based, Homo sapiens; settings: Homo sapiens, ETK-1;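 further: growth inhibition of human ETK-1 cells, read out with a cell viability assay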
Description: SANGER: Inhibition of human ETK-1 cell growth in a cell viability assay.

Becker = format: functional, cell-based, Homo sapiens; settings: Homo sapiens, Becker;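 further: growth inhibition of Becker cells, read out with a cell viability assay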
Description: SANGER: Inhibition of human Becker cell growth in a cell viability assay.

A704 = format: functional, cell-based; settings: Homo sapiens;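 further: growth inhibition of human A704 cells, read out with a cell viability assay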
Description: SANGER: Inhibition of human A704 cell growth in a cell viability assay.

TE-11 = format: functional, cell-based; settings: Homo sapiens;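 further: growth inhibition of human TE-11 cells, read out by a cell viability assay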
Description: SANGER: Inhibition of human TE-11 cell growth in a cell viability assay.

SMILES: Cc1cc(N2CCOCC2)cc2[nH]c(-c3c(NC[C@@H](O)c4cccc(Cl)c4)cc[nH]c3=O)nc12
- IC50 (GB-1): 0.495 µM
- IC50 (HCE-T): > 5.12 µM
- IC50 (HT): > 5.12 µM
- IC50 (KU812 cell line): > 5.12 µM
- IC50 (BE-13): > 5.12 µM
- IC50 (JVM-3): > 5.12 µM
- IC50 (NCI-H1155): > 5.12 µM
- IC50 (SK-MEL-1): > 5.12 µM
- IC50 (LS-123): > 5.12 µM
- IC50 (COLO-684): > 5.12 µM
- IC50 (TK-10): 2.26 µM
- IC50 (TE-12): 0.176 µM
- IC50 (NCI-H1648): 0.19 µM
- IC50 (SBC-1): > 5.12 µM
- IC50 (ES1): 1.62 µM
- IC50 (KALS-1): > 5.12 µM
- IC50 (SH-4): 0.882 µM
- IC50 (C2BBe1): > 5.12 µM
- IC50 (SF-268): 3.04 µM
- IC50 (EW-3): 4.76 µM
- IC50 (EOL1): 1.57 µM
- IC50 (EW-13): > 5.12 µM
- IC50 (ATN-1): 0.25 µM
- IC50 (ES8): 2.3 µM
- IC50 (LS-513): 4.17 µM
- IC50 (HDLM-2): > 5.12 µM
- IC50 (Ramos-2G6-4C10): > 5.12 µM
- IC50 (BB30-HNC): 1.12 µM
- IC50 (ML-2): 0.192 µM
- IC50 (MC116): > 5.12 µM
- IC50 (COLO-824): > 5.12 µM
- IC50 (MZ1-PC): 0.764 µM
- IC50 (A498): > 5.12 µM
- IC50 (CAS-1): > 5.12 µM
- IC50 (A388): > 5.12 µM
- IC50 (SW 954): 0.49 µM
- IC50 (D283 Med): > 5.12 µM
- IC50 (MMAC-SF): 0.5 µM
- IC50 (NCI-H82): > 5.12 µM
- IC50 (SW684): > 5.12 µM
- IC50 (A101D): 1.89 µM
- IC50 (NCI-H1395): > 5.12 µM
- IC50 (ACN): 1.98 µM
- IC50 (RKO): 1 µM
- IC50 (DU-4475): > 5.12 µM
- IC50 (SF-126): 2.47 µM
- IC50 (ETK-1): 0.0961 µM
- IC50 (Becker): 4.79 µM
- IC50 (A704): 1.04 µM
- IC50 (TE-11): 0.152 µM

SMILES: NC(=O)Nc1cc(-c2cccc(F)c2)sc1C(=O)N[C@H]1CCCNC1 [AZD-7762]
- IC50 (GB-1): 1.38 µM
- IC50 (HCE-T): 0.442 µM
- IC50 (HT): 1.87 µM
- IC50 (KU812 cell line): 0.168 µM
- IC50 (BE-13): 0.201 µM
- IC50 (JVM-3): 0.23 µM
- IC50 (NCI-H1155): 0.739 µM
- IC50 (SK-MEL-1): > 2 µM
- IC50 (LS-123): 1.81 µM
- IC50 (COLO-684): 0.294 µM
- IC50 (TK-10): 0.379 µM
- IC50 (TE-12): > 2 µM
- IC50 (NCI-H1648): > 2 µM
- IC50 (SBC-1): > 2 µM
- IC50 (ES1): 0.0715 µM
- IC50 (KALS-1): 0.326 µM
- IC50 (SH-4): > 2 µM
- IC50 (C2BBe1): 0.689 µM
- IC50 (SF-268): 0.881 µM
- IC50 (EW-3): 0.736 µM
- IC50 (EOL1): < 0.00781 µM
- IC50 (EW-13): > 2 µM
- IC50 (ATN-1): 0.0342 µM
- IC50 (ES8): 0.0992 µM
- IC50 (LS-513): 0.749 µM
- IC50 (HDLM-2): 0.813 µM
- IC50 (Ramos-2G6-4C10): 0.148 µM
- IC50 (BB30-HNC): 0.315 µM
- IC50 (ML-2): 0.125 µM
- IC50 (MC116): 0.257 µM
- IC50 (COLO-824): > 2 µM
- IC50 (MZ1-PC): > 2 µM
- IC50 (A498): 1.73 µM
- IC50 (CAS-1): 1.21 µM
- IC50 (A388): > 2 µM
- IC50 (SW 954): 0.401 µM
- IC50 (D283 Med): 0.137 µM
- IC50 (MMAC-SF): > 2 µM
- IC50 (NCI-H82): > 2 µM
- IC50 (SW684): > 2 µM
- IC50 (A101D): 1.7 µM
- IC50 (NCI-H1395): 0.198 µM
- IC50 (ACN): 0.172 µM
- IC50 (RKO): 0.52 µM
- IC50 (DU-4475): 0.349 µM
- IC50 (SF-126): 0.574 µM
- IC50 (ETK-1): 0.637 µM
- IC50 (Becker): 0.658 µM
- IC50 (A704): 0.539 µM
- IC50 (TE-11): 0.453 µM

SMILES: COc1ccc(N(C(=O)Oc2c(C)cccc2C)c2ccnc(Nc3ccc(N4CCN(C)CC4)cc3)n2)c(OC)c1
- IC50 (GB-1): 1.16 µM
- IC50 (HCE-T): > 5.12 µM
- IC50 (HT): > 5.12 µM
- IC50 (KU812 cell line): > 5.12 µM
- IC50 (BE-13): > 5.12 µM
- IC50 (JVM-3): > 5.12 µM
- IC50 (NCI-H1155): > 5.12 µM
- IC50 (SK-MEL-1): > 5.12 µM
- IC50 (LS-123): 4.36 µM
- IC50 (COLO-684): > 5.12 µM
- IC50 (TK-10): 1.08 µM
- IC50 (TE-12): 0.888 µM
- IC50 (NCI-H1648): 0.516 µM
- IC50 (SBC-1): > 5.12 µM
- IC50 (ES1): > 5.12 µM
- IC50 (KALS-1): > 5.12 µM
- IC50 (SH-4): 2.12 µM
- IC50 (C2BBe1): > 5.12 µM
- IC50 (SF-268): 2.49 µM
- IC50 (EW-3): > 5.12 µM
- IC50 (EOL1): < 0.02 µM
- IC50 (EW-13): > 5.12 µM
- IC50 (ATN-1): > 5.12 µM
- IC50 (ES8): > 5.12 µM
- IC50 (LS-513): > 5.12 µM
- IC50 (HDLM-2): > 5.12 µM
- IC50 (Ramos-2G6-4C10): > 5.12 µM
- IC50 (BB30-HNC): 1.85 µM
- IC50 (ML-2): > 5.12 µM
- IC50 (MC116): 2.86 µM
- IC50 (COLO-824): > 5.12 µM
- IC50 (MZ1-PC): 0.227 µM
- IC50 (A498): 0.189 µM
- IC50 (CAS-1): 4.4 µM
- IC50 (A388): > 5.12 µM
- IC50 (SW 954): 0.372 µM
- IC50 (D283 Med): > 5.12 µM
- IC50 (MMAC-SF): > 5.12 µM
- IC50 (NCI-H82): > 5.12 µM
- IC50 (SW684): 0.326 µM
- IC50 (A101D): > 5.12 µM
- IC50 (NCI-H1395): > 5.12 µM
- IC50 (ACN): 4.23 µM
- IC50 (RKO): > 5.12 µM
- IC50 (DU-4475): > 5.12 µM
- IC50 (SF-126): 1.73 µM
- IC50 (ETK-1): > 5.12 µM
- IC50 (Becker): 0.0638 µM
- IC50 (A704): < 0.02 µM
- IC50 (TE-11): > 5.12 µM
